Test results published in patent US12558342B2, “2-[2-({12,12-dimethyl-4-oxo-6-phenyl-3,11-dioxatricyclo[8.4.0.0,2,7]tetradeca-1,5,7,9-tetraen-8-yl}oxy)acetamido]benzamide and derivatives as inhibitor of clock:bmal1 interaction for the treatment of circadian rhythm diseases and disorders” (KOC UNIVERSITESI, priority 2019, dated 2026).

Molecular target: T1, CLOCK-F80A-K220A and BMAL1 interaction (Homo sapiens, UniProt O15516, F80A/K220A)
T1 construct: expressed in transfected cells; host or cells: HEK 293T
T1 sequence (O15516 1-846 F80A/K220A): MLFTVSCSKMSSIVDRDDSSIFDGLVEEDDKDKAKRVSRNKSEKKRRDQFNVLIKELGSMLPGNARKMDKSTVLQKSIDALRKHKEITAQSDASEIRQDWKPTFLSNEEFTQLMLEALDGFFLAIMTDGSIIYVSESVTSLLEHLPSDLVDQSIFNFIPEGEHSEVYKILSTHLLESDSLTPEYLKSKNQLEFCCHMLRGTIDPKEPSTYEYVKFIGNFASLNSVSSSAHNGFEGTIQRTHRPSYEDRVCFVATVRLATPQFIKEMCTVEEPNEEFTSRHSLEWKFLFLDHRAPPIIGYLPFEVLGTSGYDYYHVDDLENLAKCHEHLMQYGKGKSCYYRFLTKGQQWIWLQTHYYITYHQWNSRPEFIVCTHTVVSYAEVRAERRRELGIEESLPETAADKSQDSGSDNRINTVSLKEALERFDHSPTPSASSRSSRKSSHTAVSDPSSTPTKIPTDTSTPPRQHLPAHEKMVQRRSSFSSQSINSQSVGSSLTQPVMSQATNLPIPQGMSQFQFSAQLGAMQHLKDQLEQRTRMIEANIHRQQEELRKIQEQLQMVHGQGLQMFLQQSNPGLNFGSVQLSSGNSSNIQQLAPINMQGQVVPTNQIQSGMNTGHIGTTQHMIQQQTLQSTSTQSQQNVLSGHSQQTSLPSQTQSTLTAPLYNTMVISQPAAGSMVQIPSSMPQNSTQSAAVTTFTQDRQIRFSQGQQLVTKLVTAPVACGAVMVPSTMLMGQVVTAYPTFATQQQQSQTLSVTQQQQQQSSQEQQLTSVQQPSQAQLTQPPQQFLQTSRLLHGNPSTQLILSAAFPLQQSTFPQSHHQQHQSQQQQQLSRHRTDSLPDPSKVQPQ
Assay: Co-immunoprecipitation of FLAG-CLOCK-F80A-K220A and BMAL1
Assay type: biochemical
Details: 40 μM
Experimental: HEK 293T cells co-expressing wild type or F80A-K220A mutant FLAG-tagged Clock together with tag-free Bmal1 were lysed with ice-cold lysis buffer (50 mM Tris-HCl PH 7.7, 150 mM NaCl, 0.1% Triton X-100, 1 mM PMSF and protease inhibitor cocktail) and centrifuged at 15000×g at 4° C. for 20 minutes. DMSO and different concentrations of CLK8 were added to the whole cell lysate. The mixtures were incubated with anti-FLAG M2 affinity gel (Sigma-Aldrich) at 4° C. overnight with continuous mixing. After three wash steps, bound proteins were eluted with Laemmli buffer heated at 95° C. for 7 minutes. CLOCK and BMAL1 were detected by monoclonal anti-FLAG M2 antibody (Sigma-Aldrich) and anti-BMAL1 (Santa Cruz Biotechnology) respectively. The amount of co-precipitated BMAL1 was normalized with the amount of precipitated CLOCK.
HEK 293T cells co-expressing wild type or F80A-K220A mutant FLAG-tagged Clock together with tag-free Bmal1 were lysed with ice-cold lysis buffer (50 mM Tris-HCl pH 7.7, 150 mM NaCl, 0.1% Triton X-100, 1 mM PMSF and protease inhibitor cocktail) and centrifuged at 15000×g at 4° C. for 20 minutes. DMSO and different concentrations of CLK8 were added to the whole cell lysate. […] CLOCK and BMAL1 were detected by monoclonal anti-FLAG M2 antibody (Sigma-Aldrich) and anti-BMAL1 (Santa Cruz Biotechnology) respectively. […]

In the case of `CC1(C)CCc2c(cc(OCC(=O)Nc3ccccc3C(N)=O)c3c(-c4ccccc4)cc(=O)oc23)O1` [CLK8, 2-[2-({12,12-dimethyl-4-oxo-6-phenyl-3,11-dioxatricyclo [8.4.0.0,2,7]tetradeca-1,5,7,9-tetraen-8-yl}oxy)acetamido] benzamide], the “interaction between CLOCK-F80A-K220A and BMAL1” value is reported as “not affected”.
